Measured values reported in ChEMBL document CHEMBL6120992, “Breviane Spiroditerpenoids with Anti-inflammatory and Antiviral Activities from Deep-Sea-Derived Fungus Penicillium sp. F59” (J Nat Prod, 2025).

How the values were obtained:
RAW264.7 [1] = test: Antiinflammatory activity in LPS-induced mouse RAW264.7 cells assessed as inhibition of nitric oxide secretion at 20 microM incubated for 24 hrs by Griess reagent based assay relative to control; format: functional
SARS-CoV-2 [2] = test: Antiviral activity against SARS-CoV-2 Omicron BA.2 pseudovirus infected in human 293T/ACE2 cells assessed as virus inhibition at 50 microM incubated for 24 hrs by firefly luciferase assay relative to control; format: functional; conditions: Severe acute respiratory syndrome coronavirus 2, Omicron BA.2, 293T/ACE2
RAW264.7 [3] = test: Cytotoxicity against mouse RAW264.7 cells assessed as cell viability at 20 microM incubated for 24 hrs by CCK-8 method relative to control; format: functional; conditions: read-out: Activity
[4] = Cytotoxicity against human 293T/ACE2 cells assessed as cell viability at 100 microM incubated for 24 hrs by CellTiter assay relative to control; format: functional; conditions: read-out: Activity
RAW264.7 [5] = test: Antiinflammatory activity in LPS-induced mouse RAW264.7 cells assessed as inhibition of nitric oxide secretion incubated for 24 hrs by Griess reagent based assay; format: functional, cell-based; conditions: RAW264.7, 24 h
SARS-CoV-2 [6] = test: Antiviral activity against SARS-CoV-2 Omicron BA.2 pseudovirus infected in human 293T/ACE2 cells assessed as virus inhibition incubated for 24 hrs by firefly luciferase assay; format: functional, organism-based; conditions: Severe acute respiratory syndrome coronavirus 2, Omicron BA.2, 293T/ACE2, 24 h

Row | Structure (SMILES) | inhibition at 20 µM (RAW264.7 [1]) [%] | inhibition at 50 µM (SARS-CoV-2 [2]) [%] | viability at 20 µM (RAW264.7 [3]) [%] | viability at 100 µM [4] [%] | IC50 (RAW264.7 [5]) [µM] | IC50 (SARS-CoV-2 [6]) [µM]
1 | CC1=C[C@H](O)[C@@H]2[C@@]3(C)[C@H](O)C(=O)[C@H](O)C(C)(C)[C@@H]3CC[C@@]2(C)[C@]12Cc1c(c(C)c(C)oc1=O)O2 | 35 | 11 | 100 | 93 | – | –
2 | CC1=C[C@H](O)[C@@H]2[C@@]3(C)C[C@@H](O)C(=O)C(C)(C)[C@@H]3CC[C@@]2(C)[C@]12Cc1c(c(C)c(C)oc1=O)O2 | 38 | 0 | 100 | 93 | – | –
3 | CO[C@H]1c2c(c(C)c(C)oc2=O)O[C@]12C(C)=C[C@H]1O[C@H]3CC(=O)C=C(C)[C@@H]4CC[C@]2(C)[C@H]1[C@@]34C | 57 | 0 | 85 | 92 | – | –
4 | CC1=CC(=O)[C@@H]2[C@@]3(C)C=CC(=O)C(C)(C)[C@@H]3CC[C@@]2(C)[C@]12Cc1c(c(C)c(C)oc1=O)O2 | 87 | 23 | 100 | 95 | 5.3 | –
5 | CC(=O)/C(C)=C1\C[C@H]2O[C@@H](O)[C@]34CC[C@H]5C(C)=CC(=O)C[C@@H]6O[C@H](C=C(C)[C@@]23O1)[C@@H]4[C@@]65C | 38 | 0 | 100 | 90 | – | –
6 | CC1=CC(=O)C[C@@H]2O[C@@H]3C=C(C)[C@@]45Oc6c(C)c(C)oc(=O)c6[C@@H]4OC[C@]54CC[C@@H]1[C@@]2(C)[C@@H]34 | 45 | 16 | 93 | 90 | – | –
7 | CC1=CC(=O)C=C[C@]2(C)[C@H]3CC=C(C)[C@@]45Oc6c(C)c(C)oc(=O)c6[C@@H]4O[C@@H](O)[C@@]35CC[C@@H]12 | 69 | 28 | 91 | 93 | – | –
8 | CC1=CC(=O)C=C[C@]2(C)[C@H]3C(O)C=C(C)[C@@]4(Cc5c(c(C)c(C)oc5=O)O4)[C@]3(C)CC[C@@H]12 (stereo partly drawn) | 94 | 0 | 98 | 93 | 9.2 | –
9 | CC1=CC(=O)C=C[C@]2(C)[C@H]3C(=O)C=C(C)[C@]4(Oc5c(C)c(C)oc(=O)c5[C@@H]4O)[C@]3(C)CC[C@@H]12 | 47 | 46 | 91 | 98 | – | –
10 | CC1=CC(=O)C=C[C@]2(C)[C@H]3[C@@H](O)[C@@H]4O[C@]4(C)[C@@]4(Cc5c(c(C)c(C)oc5=O)O4)[C@]3(C)CC[C@@H]12 | 63 | 69 | 100 | 99 | – | 10.3
11 | CC(=O)/C(C)=C1/C[C@H]2O[C@@H](O)[C@]34CC[C@H]5C(C)=CC(=O)C[C@@H]6O[C@H](C=C(C)[C@@]23O1)[C@@H]4[C@@]65C | 31 | 15 | 96 | 92 | – | –
12 | CC1=CC[C@@H]2[C@@]3(C)C=CC(=O)[C@@](C)(CO)[C@@H]3CC[C@@]2(C)[C@]12Cc1c(c(C)c(C)oc1=O)O2 | 49 | 14 | 87 | 97 | – | –
13 | CC(=O)O[C@@H]1O[C@@H]2C/C(=C(/C)C(C)=O)O[C@]23C(C)=C[C@H]2O[C@H]4CC(=O)C=C(C)[C@@H]5CC[C@@]13[C@H]2[C@@]45C | 34 | 57 | 100 | 92 | – | –
14 | CC1=CC(=O)C[C@@H]2O[C@@H]3C=C(C)[C@]4(Oc5c(C)c(C)oc(=O)c5[C@@H]4O)[C@]4(C)CC[C@@H]1[C@@]2(C)[C@@H]34 | 52 | 43 | 100 | 92 | – | –
15 | CC1=CC(=O)C[C@@H]2O[C@@H]3C=C(C)[C@@]4(Cc5c(c(C)c(C)oc5=O)O4)[C@]4(C)CC[C@@H]1[C@@]2(C)[C@@H]34 | 25 | 0 | 100 | 95 | – | –
16 | CC1=CC(=O)C[C@@H]2O[C@@H]3C=C(C)[C@@]45Oc6c(C)c(C)oc(=O)c6[C@@H]4O[C@@H](O)[C@]54CC[C@@H]1[C@@]2(C)[C@@H]34 | 35 | 0 | 100 | 99 | – | –
17 | CC1=CC(=O)[C@@H]2[C@@]3(C)[C@H](O)CC(=O)C(C)(C)[C@@H]3CC[C@@]2(C)[C@]12Cc1c(c(C)c(C)oc1=O)O2 | 45 | 28 | 99 | 91 | – | –
18 | CC1=CC(=O)C=C[C@]2(C)[C@H]3[C@@H]4C=C(C)[C@@]56Oc7c(C)c(C)oc(=O)c7[C@@H]5O[C@@H](O4)[C@@]36CC[C@@H]12 | 98 | 95 | 93 | 94 | 1.4 | 8.5
19 | CC(C)(C)c1ccc(S(=O)(=O)/C=C/C#N)cc1 [BAY-11-7085] | 77 | 99 | 100 | 99 | 13.3 | 0.74
20 | CC1=CC(=O)C=C[C@]2(C)[C@H]3[C@@H](O)C=C(C)[C@@]4(Cc5c(c(C)c(C)oc5=O)O4)[C@]3(C)CC[C@@H]12 [BREVIONE F] | 79 | 5 | 100 | 97 | 12.9 | –
